Reference: patent publication US7728142B2, “3-methanesulfonylquinolines as GABAB enhancers” (Hoffmann-La Roche Inc., priority 2005, dated 2010)
Where two headings read alike, the source gives them in different places.

Legend:
[1] = PO, cited from earlier work
[2] = in vivo; cited from earlier work
symptoms of PTSD = conditions: small group of veterans with chronic, combat-related PTSD; cited from earlier work
prepulse inhibition = conditions: rat; cited from earlier work
[3] = tested on: panic attacks and symptoms of anxiety; conditions: panic disorder patients; Hamilton, Zung anxiety scales, Katz-R nervousness subscale; cited from earlier work
[4] = tested on: cocaine self-administration; conditions: rats; cited from earlier work
[5] = tested on: Gastro-Esophageal Reflux Disease; conditions: preclinical; cited from earlier work
GABABR1R2 = GABABR1R2 (Homo sapiens, UniProt O75899+Q9UBS5); conditions: absence of GABA; cited from earlier work
human GABABR1aR2a [6] = target: T1, human GABABR1aR2a (Homo sapiens, UniProt O75899+Q9UBS5); test: GABA shift assay (Ca2+ mobilization, GABA curves with and without 10 μM enhancer); assay type: cell-based; conditions: CHO-GABABR1aR2a-Gα16 cell
T1 construct: expressed in transfected cells
Procedure: (§1) Intracellular Ca^2+ Mobilization Assay
(§2) Chinese Hamster Ovary (CHO) cells stably expressing human GABABR1aR2a and Gα16 were seeded at 5×10^4 cells/well in the poly-D-lysine treated, 96-well, black/clear-bottomed plates (BD Biosciences, Palo Alto, Calif.). 24 h later, the cells were loaded for 90 min at 37° C. with 4 μM Flou-4 acetoxymethyl ester (Catalog No. F-14202, Molecular Probes, Eugene, Oreg.) in loading buffer (1×HBSS, 20 mM HEPES, 2.5 mM Probenecid). Hanks' Balanced Salt Solution (HBSS) (10×) (catalog No. 14065-049) and HEPES (1M) (catalog No. 15630-056) were purchased from Invitrogen, Carlsbad, Calif. Probenecid (250 mM) (catalog No. P8761) was from Sigma, Buchs, Switzerland. The cells were washed five times with loading buffer to remove excess dye and intracellular calcium mobilization, [Ca^2+] was measured using a Fluorometric Imaging Plate Reader (FLIPR, Molecular Devices, Menlo Park, Calif.) as described previously (Porter et al., Br. J. Pharmacol., 128, 13-20, 1999). The enhancers were applied 15 min before the application of the GABA. For GABA shift assay, concentration-response curves of GABA (0.0003-30 μM) were determined in the absence and presence of 10 μM enhancer. The GABA-shift is defined as Log [EC50 (GABA+10 μM enhancer)/EC50 (GABA alone)]. The % maximum enhancing effect (% Emax) and potency (EC50 value) of each enhancer was determined from concentration-response curve of the enhancer (0.001-30 μM) in the presence of 10 nM GABA (EC10). Responses were measured as peak increase in fluorescence minus basal, normalized to the maximal stimulatory effect induced by 10 μM GABA alone (considered 100%) and 10 nM GABA alone (considered 0%). The data were fitted with the equation Y=100+(Max−100)/(1+(EC50/[drug])^n) where Max is the maximum effect, EC50 the concentration eliciting a half-maximum effect and n the Hill slope.

human GABABR1aR2a [7] = target: T1, human GABABR1aR2a; test: Intracellular Ca2+ mobilization assay (FLIPR), enhancer concentration-response in presence of 10 nM GABA; assay type: cell-based; conditions: CHO-GABABR1aR2a-Gα16 cell; for Emax: enhancer 0.001-30 μM in presence of 10 nM GABA (EC10), read-out: Emax (%) at 10 nM GABA alone = 0% 10 μM GABA alone = 100%; for EC50: in presence of 10 nM GABA (EC10)
Procedure: as §1, §2

cognition performance = conditions: passive avoidance, mice and rats; cited from earlier work
anxiety [8] = conditions: elevated plus maze (rat), elevated zero maze (mice and rats), stress-induced hyperthermia (mice); cited from earlier work
anxiety [9] = conditions: cited from earlier work

T1 sequence (Q9UBS5 15-961 limits assumed): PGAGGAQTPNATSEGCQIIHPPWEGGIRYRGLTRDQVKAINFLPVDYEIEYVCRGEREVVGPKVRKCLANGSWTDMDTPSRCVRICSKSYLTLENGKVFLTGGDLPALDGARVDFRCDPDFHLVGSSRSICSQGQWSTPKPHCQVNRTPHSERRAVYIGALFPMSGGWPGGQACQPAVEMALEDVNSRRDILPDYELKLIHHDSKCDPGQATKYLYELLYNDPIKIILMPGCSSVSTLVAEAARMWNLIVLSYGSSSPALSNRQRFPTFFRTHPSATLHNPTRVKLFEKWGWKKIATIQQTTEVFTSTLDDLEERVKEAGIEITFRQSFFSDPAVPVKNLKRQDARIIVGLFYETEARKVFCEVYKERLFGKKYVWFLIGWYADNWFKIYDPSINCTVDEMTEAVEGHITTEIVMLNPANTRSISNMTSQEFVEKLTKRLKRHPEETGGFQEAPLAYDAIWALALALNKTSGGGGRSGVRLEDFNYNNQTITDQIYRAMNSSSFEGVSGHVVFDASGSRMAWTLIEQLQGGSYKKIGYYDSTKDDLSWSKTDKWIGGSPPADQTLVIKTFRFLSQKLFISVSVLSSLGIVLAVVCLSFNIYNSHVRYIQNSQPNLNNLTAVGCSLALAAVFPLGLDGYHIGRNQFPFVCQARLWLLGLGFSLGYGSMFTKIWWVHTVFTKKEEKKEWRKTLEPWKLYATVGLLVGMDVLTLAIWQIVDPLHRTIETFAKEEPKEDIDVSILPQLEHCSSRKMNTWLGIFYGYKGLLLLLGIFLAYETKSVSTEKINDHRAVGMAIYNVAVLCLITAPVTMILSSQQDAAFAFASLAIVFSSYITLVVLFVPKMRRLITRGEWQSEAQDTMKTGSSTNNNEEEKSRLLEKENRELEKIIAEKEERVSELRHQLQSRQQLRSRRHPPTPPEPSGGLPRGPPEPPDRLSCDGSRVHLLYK
T1 sequence (O75899 42-941): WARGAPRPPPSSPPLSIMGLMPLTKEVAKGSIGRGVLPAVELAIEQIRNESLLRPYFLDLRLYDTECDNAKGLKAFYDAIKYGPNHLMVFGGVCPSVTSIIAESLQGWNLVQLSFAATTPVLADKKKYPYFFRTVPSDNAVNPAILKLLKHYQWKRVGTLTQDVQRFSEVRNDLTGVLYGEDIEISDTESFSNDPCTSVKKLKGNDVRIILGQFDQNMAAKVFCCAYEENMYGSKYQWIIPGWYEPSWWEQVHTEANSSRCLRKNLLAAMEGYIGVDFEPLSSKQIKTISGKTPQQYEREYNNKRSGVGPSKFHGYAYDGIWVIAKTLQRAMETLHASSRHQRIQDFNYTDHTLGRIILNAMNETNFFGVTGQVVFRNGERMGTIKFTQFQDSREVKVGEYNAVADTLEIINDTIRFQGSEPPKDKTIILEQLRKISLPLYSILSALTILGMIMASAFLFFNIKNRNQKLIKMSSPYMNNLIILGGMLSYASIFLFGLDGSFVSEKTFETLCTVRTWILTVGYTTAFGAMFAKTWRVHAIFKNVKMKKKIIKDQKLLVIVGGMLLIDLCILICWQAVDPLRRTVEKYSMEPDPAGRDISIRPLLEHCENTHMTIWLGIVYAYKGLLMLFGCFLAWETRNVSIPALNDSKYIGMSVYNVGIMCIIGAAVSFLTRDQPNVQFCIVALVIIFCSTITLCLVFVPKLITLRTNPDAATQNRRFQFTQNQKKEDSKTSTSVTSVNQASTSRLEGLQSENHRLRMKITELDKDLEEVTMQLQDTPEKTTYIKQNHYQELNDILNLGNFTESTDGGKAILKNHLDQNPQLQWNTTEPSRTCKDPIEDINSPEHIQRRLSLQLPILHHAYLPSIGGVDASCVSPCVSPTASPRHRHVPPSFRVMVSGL
Chain of GABABR1R2 (Q9UBS5 20-961): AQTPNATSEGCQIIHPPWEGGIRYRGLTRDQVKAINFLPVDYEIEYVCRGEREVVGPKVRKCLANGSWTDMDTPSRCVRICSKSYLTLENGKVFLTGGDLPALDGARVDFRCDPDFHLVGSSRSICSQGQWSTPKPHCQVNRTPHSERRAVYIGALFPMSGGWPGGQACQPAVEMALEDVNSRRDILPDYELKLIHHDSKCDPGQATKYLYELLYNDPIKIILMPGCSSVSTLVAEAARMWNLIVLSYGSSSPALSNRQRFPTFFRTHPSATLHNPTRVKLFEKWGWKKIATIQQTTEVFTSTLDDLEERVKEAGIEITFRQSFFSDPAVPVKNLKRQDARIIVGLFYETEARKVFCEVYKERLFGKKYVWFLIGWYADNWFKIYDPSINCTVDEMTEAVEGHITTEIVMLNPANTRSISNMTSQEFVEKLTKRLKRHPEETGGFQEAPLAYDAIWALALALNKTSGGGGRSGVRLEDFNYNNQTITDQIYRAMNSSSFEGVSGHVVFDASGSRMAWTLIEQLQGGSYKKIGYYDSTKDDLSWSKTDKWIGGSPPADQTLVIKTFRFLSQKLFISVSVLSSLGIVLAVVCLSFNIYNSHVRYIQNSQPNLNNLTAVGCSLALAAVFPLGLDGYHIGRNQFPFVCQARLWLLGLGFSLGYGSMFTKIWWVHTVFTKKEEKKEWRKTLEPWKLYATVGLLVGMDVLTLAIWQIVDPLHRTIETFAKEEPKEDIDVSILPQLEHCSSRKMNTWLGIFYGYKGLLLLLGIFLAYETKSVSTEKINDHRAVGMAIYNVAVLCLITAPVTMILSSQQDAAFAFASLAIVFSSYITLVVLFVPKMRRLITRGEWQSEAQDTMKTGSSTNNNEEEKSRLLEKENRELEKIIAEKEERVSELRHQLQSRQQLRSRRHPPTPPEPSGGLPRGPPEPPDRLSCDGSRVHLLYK
Chain of GABABR1R2 (O75899 42-941): as the sequence (O75899 42-941) above

Compound | GABA shift Log [EC50(GABA + 10 μM cp)/EC50(GABA alone)] (human GABABR1aR2a [6]) | Emax (human GABABR1aR2a [7]) [%] | EC50 (human GABABR1aR2a [7]) [µM] | also measured
NCC(CC(=O)O)c1ccc(Cl)cc1 (stereo not drawn) [Baclofen, β-chlorophenyl GABA] |  |  |  | effect on spontaneous locomotor activity, rotarod, body temperature and traction test ([1]; 2.5-15 mg/kg): showed these side effects; blood-brain-barrier penetration [2]: poor blood-brain-barrier penetration; treatment of PTSD (symptoms of PTSD): effective and well-tolerated treatment; reversal of reduction in prepulse inhibition induced by dizocilpine (prepulse inhibition): able to reverse the reduction in prepulse inhibition; reduction of number of panic attacks and symptoms of anxiety [3]: significantly effective
CC(C)(CO)Cc1cc(C(C)(C)C)c(O)c(C(C)(C)C)c1 [CGP7930, 2,6-di-tert-butyl-4-(3-hydroxy-2,2-dimethyl-propyl)-phenol] |  |  |  | decrease of cocaine self-administration [4]: effective at decreasing cocaine self-administration; efficacy in GERD [5]: found to be effective; effect on their own at GABAB receptors (GABABR1R2): no effect on their own
CC(C)(C=O)Cc1cc(C(C)(C)C)c(O)c(C(C)(C)C)c1 [CGP13501] |  |  |  | effect on their own at GABAB receptors (GABABR1R2): no effect on their own
Cc1nc2ccc(I)cc2c(N2CCCCC2)c1S(C)(=O)=O [Example 9, 6-Iodo-3-methanesulfonyl-2-methyl-4-piperidin-1-yl-quinoline] | −1.2 | 48 | 0.6 | 
Cc1nc2ccc(Br)cc2c(-c2ccc(F)cc2)c1S(C)(=O)=O [Example 14, 6-Bromo-4-(4-fluoro-phenyl)-3-methanesulfonyl-2-methyl-quinoline] | −0.45 | 37 | 2.1 | 
CSc1nc(NC2CCCC2)c([N+](=O)[O-])c(NC2CCCC2)n1 [GS39783, N,N_-dicyclopentyl-2-methylsulfanyl-5-nitro-pyrimidine-4,6-diamine] |  |  |  | effect on spontaneous locomotor activity, rotarod, body temperature and traction test ([1]; 0.1-200 mg/kg): had no effect; decrease of cocaine self-administration [4]: effective at decreasing cocaine self-administration; effect on cognition performance (cognition performance): did not have any effect; anxiolytic-like effects (anxiety [8]): exhibited anxiolytic-like effects; tolerance after chronic treatment (anxiety [9]; 21 days, 10 mg/kg, P.O., once daily): No tolerance; anxiolytic effects in light-dark box and elevated zero maze (anxiety [9]; acute and chronic treatment): anxiolytic effects

Now from value to compound, other results behind:

GABA shift Log [EC50(GABA + 10 μM cp)/EC50(GABA alone)] (human GABABR1aR2a [6]) | Emax (human GABABR1aR2a [7]) [%] | EC50 (human GABABR1aR2a [7]) [µM] | Compound | also measured
−0.7 | 56 | 0.85 | Cc1nc2ccc(OC(F)(F)F)cc2c(-c2ccccc2)c1S(C)(=O)=O [Example 1, 3-Methanesulfonyl-2-methyl-4-phenyl-6-trifluoromethoxy-quinoline] | 
−0.4 | 30 | 2.1 | Cc1nc2ccc(I)cc2c(N2CCOCC2)c1S(C)(=O)=O [Example 5, 6-Iodo-3-methanesulfonyl-2-methyl-4-morpholin-4-yl-quinoline] | 
−0.8 | 26 | 0.8 | Cc1nc2ccc(I)cc2c(N2CCC[C@@H](O)C2)c1S(C)(=O)=O [Example 11, (R)-1-(6-Iodo-3-methanesulfonyl-2-methyl-quinolin-4-yl)-piperidin-3-ol] | 
